Structures can show the parent of a compound that is named as a salt. Where two headings read alike, the source gives them in different places.
What was measured:
[1] = system: GII.4 HuNoV; assay: GII.4 HuNoV infection of HIE monolayers, viral genome equivalents by RT-qPCR; format: cell-based, human norovirus; details: compound 10 μM, n = 1, J2 HIE monolayers, GII.4 HuNoV, 24 hpi, normalized to DMSO control; for activity at 10 µM: Norovirus, 24 h, read-out: (%) HuNoV GEs
[2] = system: J2 HIE monolayers

| Compound | activity at 10 µM [1] | (%) Cytotoxicity ([2]; human, 24 h, 10 μM) | (%) HuNoV GEs [1] | (%) Cytotoxicity [2] |
| --- | --- | --- | --- | --- |
| O=c1[nH]c(=O)n([C@H]2C[C@H](O)[C@@H](CO)O2)cc1I [Dendrid] | 67.3% | -0.36% |  |  |
| CN(C)CC[C@@H](c1ccc(Cl)cc1)c1ccccn1 [Dexchlorpheniramine Maleate] | 63.6% | -3.40% |  |  |
| CC(=O)OCC(=O)[C@@]1(O)CC[C@H]2[C@@H]3CCC4=CC(=O)C=C[C@]4(C)[C@@]3(Cl)[C@@H](Cl)C[C@@]21C [Dichlorisone Acetate] | 59.1% | -1.58% |  |  |
| O=c1[nH]cnc2c1ncn2[C@H]1CC[C@@H](CO)O1 [Didanosine] | 52.8% | -0.0652% |  |  |
| Clc1ccc(COC(Cn2ccnc2)c2ccc(Cl)cc2Cl)cc1 (stereo not drawn) [Econazole] | 95.8% | 7.35% |  |  |
| O=C1Nc2ccc(Cl)cc2[C@@](C#CC2CC2)(C(F)(F)F)O1 [Efavirenz] | 135% | 1.69% |  |  |
| Nc1nc(=O)n([C@@H]2CS[C@H](CO)O2)cc1F [Emtricitabine] | 55.5% | 2.80% |  |  |
| CCn1cc(C(=O)O)c(=O)c2cc(F)c(N3CCNCC3)nc21 [Enoxacin] | 12.5% | 0.62% |  |  |
| C=C1[C@H](CO)[C@@H](O)C[C@@H]1n1cnc2c(=O)[nH]c(N)nc21 [Entecavir hydrate] | 23.6% | -1.04% |  |  |
| CC[C@@H](CO)NCCN[C@@H](CC)CO [Ethambutol dihydrochloride] | 100% | 0.23% |  |  |
| CC(=O)OCC(CCn1cnc2cnc(N)nc21)COC(C)=O [Famciclovir] | 27.3% | 0.72% |  |  |
| O=c1[nH]c(=O)n([C@H]2C[C@H](O)[C@@H](CO)O2)cc1F [Floxuridine] | 12.6% | 0.65% |  |  |
| O=c1[nH]cc(F)c(=O)[nH]1 [Fluorouracil] | 27.4% | -0.47% |  |  |
| O=C(O)P(=O)(O)O [Foscarnet sodium] | 88.5% | 1.07% |  |  |
| COc1cnc(-n2cnc(C)n2)c2c1c(C(=O)C(=O)N1CCN(C(=O)c3ccccc3)CC1)cn2COP(=O)(O)O [Fostemsavir] | 87.3% | -2.34% |  |  |
| CCOC(=O)c1cccc(NC(=O)CCn2nc(C)c(S(=O)(=O)N3CCCCC3)c2C)c1 [G402-0849] |  |  | 158.24% | 1.12% |
| Nc1nc(O)c2ncn(COC(CO)CO)c2n1 [Ganciclovir] | 117% | 3.59% |  |  |
| COC1=C2C[C@@H](C)C[C@H](OC)[C@H](O)[C@@H](C)/C=C(\C)[C@H](OC(N)=O)[C@@H](OC)/C=C\C=C(/C)C(=O)NC(=CC1=O)C2=O [Geldanamycin] | 18.6% | 67.53% |  |  |
| O[C@H]1[C@H](O)[C@@H](O)[C@H](O)[C@@H](O)[C@H]1O [Inositol] | 44.9% | 2.88% |  |  |
| CC(=O)N(CC(O)CO)c1c(I)c(C(=O)NCC(O)CO)c(I)c(C(=O)NCC(O)CO)c1I (stereo not drawn) [Iohexol] | 55.3% | 1.11% |  |  |
| O=C(/C=C/c1ccc(O)cc1)c1ccc(O)cc1O [Isoliquiritigenin] | 172% | 0.86% |  |  |
| Nc1ccn([C@@H]2CS[C@H](CO)O2)c(=O)n1 [Lamivudine] | 118% | 0.86% |  |  |
| CC1(C)O[C@H]2CC(=O)OC[C@]23[C@H]2CC[C@@]4(C)[C@H](c5ccoc5)OC(=O)[C@H]5O[C@]54[C@]2(C)C(=O)C[C@@H]13 [Limonin] | 59.9% | 0.73% |  |  |
| Cc1cccc(C)c1OCC(=O)N[C@@H](Cc1ccccc1)[C@@H](O)C[C@H](Cc1ccccc1)NC(=O)[C@H](C(C)C)N1CCCNC1=O [Lopinavir] | 102% | 9.07% |  |  |
| COc1cc(NC(=O)Nc2cccc(CNC(=O)O[C@H]3CCOC3)c2)ccc1-c1cnco1 [Merimepodib] | 17% | 0.74% |  |  |
| Clc1ccc(COC(Cn2ccnc2)c2ccc(Cl)cc2Cl)c(Cl)c1 (stereo not drawn) [Miconazole] | 76.8% | 25.21% |  |  |

| Compound | activity at 10 µM [1] | (%) Cytotoxicity ([2]; human, 24 h, 10 μM) | (%) HuNoV GEs [1] | (%) Cytotoxicity [2] |
| --- | --- | --- | --- | --- |
| Cc1c(O)cccc1C(=O)N[C@@H](CSc1ccccc1)[C@H](O)CN1C[C@H]2CCCC[C@H]2C[C@H]1C(=O)NC(C)(C)C [Nelfinavir Mesylate] | 39.7% | 4.06% |  |  |
| CC(=O)Oc1ccccc1C(=O)Nc1ncc([N+](=O)[O-])s1 [Nitazoxanide] | 44.5% | 4.63% |  |  |
| O=C(O)c1cc(=O)[nH]c(=O)[nH]1 [Orotic acid] | 52.6% | 0.45% |  |  |
| CN(C(=O)CN(CCO)CC(=O)N(C)C(C)(C)Cc1ccccc1)C(C)(C)Cc1ccccc1 [Oxethazaine] | 29.4% | 1.91% |  |  |
| CN(C)[C@@H]1C(O)=C(C(N)=O)C(=O)[C@@]2(O)C(O)=C3C(=O)c4c(O)cccc4[C@@](C)(O)[C@H]3[C@H](O)[C@@H]12 [Oxytetracycline] | 46.2% | 3.05% |  |  |
| Nc1nc2c(ncn2CCC(CO)CO)c(=O)[nH]1 [Penciclovir] | 22.1% | 2.02% |  |  |
| O=C(O)c1ccccc1C(=O)Nc1ccc(S(=O)(=O)Nc2nccs2)cc1 [Phthalylsulfathiazole] | 44% | 2.05% |  |  |
| CCOC(=O)c1ccc(OCCC2CCN(c3ccc(C)nn3)CC2)cc1 [Pirodavir] | 50.5% | -3.64% |  |  |
| CCOCc1nc2c(N)nc3ccccc3c2n1CC(C)(C)O [Resiquimod] | 76.7% | 2.61% |  |  |
| Cc1nc(Nc2ccc(F)cc2)nc(N2CCc3ccccc3C2C)c1C (stereo not drawn) [Revaprazan hydrochloride] | 214% | 0.20% |  |  |
| CO[C@H]1/C=C/O[C@@]2(C)Oc3c(C)c(O)c4c(O)c(c(/C=N/N5CCN(C)CC5)c(O)c4c3C2=O)NC(=O)/C(C)=C\C=C\[C@H](C)[C@H](O)[C@@H](C)[C@@H](O)[C@@H](C)[C@H](OC(C)=O)[C@@H]1C [Rifampicin] | 60.2% | 2.64% |  |  |
| CC(C)c1nc(CN(C)C(=O)N[C@H](C(=O)N[C@@H](Cc2ccccc2)C[C@H](O)[C@H](Cc2ccccc2)NC(=O)OCc2cncs2)C(C)C)cs1 [Ritonavir] | 52.7% | 1.11% |  |  |
| Cc1cc(F)c(C(=O)Nc2cccc(-c3nncn3C(C)C)n2)cc1-n1cnc(C2CC2)c1 [Selonsertib] | 48.5% | -2.58% |  |  |
| NCCCNCCCCNCCCN [Spermine] | 116% | 2.77% |  |  |
| Cc1cn([C@H]2C=C[C@@H](CO)O2)c(=O)[nH]c1=O [Stavudine] | 124% | 2.15% |  |  |
| COc1ncnc(NS(=O)(=O)c2ccc(N)cc2)c1OC [Sulfadoxine] | 50% | 2.36% |  |  |
| CCC[C@H](NC(=O)[C@@H]1[C@H]2CCC[C@H]2CN1C(=O)[C@@H](NC(=O)[C@@H](NC(=O)c1cnccn1)C1CCCCC1)C(C)(C)C)C(=O)C(=O)NC1CC1 [Telaprevir] | 53.2% | 0.86% |  |  |
| Cc1cn([C@@H]2C[C@@H](O)[C@H](CO)O2)c(=O)[nH]c1=O [Telbivudine] | 70.2% | -0.33% |  |  |
| C[C@H](Cn1cnc2c(N)ncnc21)OCP(=O)(O)O [Tenofovir] | 56.5% | 0.98% |  |  |
| CCS(=O)(=O)CCn1c([N+](=O)[O-])cnc1C [Tinidazole] | 41% | -0.09% |  |  |
| O=c1[nH]c(=O)n([C@H]2C[C@H](O)[C@@H](CO)O2)cc1C(F)(F)F [Trifluridine] | 77.1% | 0.46% |  |  |
| Clc1ccc(C(Cn2ccnc2)OCc2ccsc2Cl)c(Cl)c1 (stereo not drawn) [Vagistat] | 28.3% | 3.16% |  |  |
| CC(C)[C@H](N)C(=O)OCCOCn1cnc2c(=O)[nH]c(N)nc21 [Valacyclovir hydrochloride] | 22.4% | 0.09% |  |  |
| CC(C)[C@H](N)C(=O)OCC(CO)OCn1cnc2c(=O)nc(N)[nH]c21 (stereo partly drawn) [Valganciclovir hydrochloride] | 189% | 0.33% |  |  |
| Nc1ncnc2c1ncn2[C@@H]1O[C@H](CO)[C@@H](O)[C@@H]1O [Vidarabine] | 51.4% | -2.58% |  |  |

From publication PMC8565515, “Dasabuvir Inhibits Human Norovirus Infection in Human Intestinal Enteroids” (mSphere, 2021)
